Laboratory results published in PubChem BioAssay (NCI).
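Step 1: Grow cells in 96-well plates. Step 2: Expose to compound for 48 hours at 5 concentrations. Step 3: Interpolate endpoints linearly; if unreached, use highest concentration. At the TGI there is no net growth.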

Experiments:
Test in all cases: DTP human tumour cell line panel, 48 h
[1] = tested on: SW-620 colon
[2] = tested on: M14 melanoma
[3] = tested on: A498 renal
[4] = tested on: NCI-H522 lung
[5] = tested on: SF-539 CNS
[6] = tested on: DU-145 prostate
[7] = tested on: SF-295 CNS
[8] = tested on: SN12C renal
[9] = tested on: EKVX NSCLC
[10] = tested on: BT-549 breast
[11] = tested on: MDA-MB-231 breast
[12] = tested on: MCF7 breast
[13] = tested on: PC-3 prostate
[14] = tested on: UACC-62 melanoma
[15] = tested on: HS 578T breast
[16] = tested on: SNB-75 CNS
[17] = tested on: SK-MEL-2 melanoma
[18] = tested on: OVCAR-4 ovarian
[19] = tested on: OVCAR-8 ovarian
[20] = tested on: MDA-MB-435
[21] = tested on: CCRF-CEM leukemia
[22] = tested on: RPMI-8226 leukemia
[23] = tested on: SK-MEL-28 melanoma
[24] = tested on: MDA-N
[25] = tested on: A549 NSCLC
[26] = tested on: NCI-H23 lung
[27] = tested on: LOX IMVI melanoma
[28] = tested on: MOLT-4 leukemia
[29] = tested on: HT29 colon
[30] = tested on: ACHN renal
[31] = tested on: SR leukemia
[32] = tested on: HOP-92 NSCLC
[33] = tested on: SNB-19 CNS
[34] = tested on: HCT-15 colon
[35] = tested on: SF-268 CNS
[36] = tested on: HCC-2998 colon
[37] = tested on: UACC-257 melanoma
[38] = tested on: KM12 colon
[39] = tested on: OVCAR-5 ovarian
[40] = tested on: T-47D breast
[41] = tested on: OVCAR-3 ovarian
[42] = tested on: NCI-H460 lung
[43] = tested on: HCT-116 colon
[44] = tested on: NCI-H226 lung
[45] = tested on: MALME-3M melanoma
[46] = tested on: U251 CNS
[47] = tested on: IGROV1 ovarian
[48] = tested on: K-562 leukemia
[49] = tested on: NCI/ADR-RES ovarian
[50] = tested on: TK-10 renal
[51] = tested on: SK-MEL-5 melanoma
[52] = tested on: CAKI-1 renal
[53] = tested on: UO-31 renal
[54] = tested on: COLO 205 colon
[55] = tested on: 786-0 renal
[56] = tested on: RXF 393 renal
[57] = tested on: HOP-62 NSCLC
[58] = tested on: SK-OV-3 ovarian
[59] = tested on: HL-60(TB) leukemia

CCOc1ccc(N/C(Cl)=C(Cl)\C(=C(\Nc2ccc(OCC)cc2)n2nnc3ccccc32)[N+](=O)[O-])cc1
TGI [1]: 5.71 µM | TGI [2]: 17.3 µM | TGI [3]: 39 µM | TGI [4]: 2.86 µM | TGI [5]: 11.1 µM | TGI [6]: 46.8 µM | TGI [7]: 57.7 µM | TGI [8]: 23.3 µM | TGI [9]: 31.3 µM | TGI [10]: 14 µM | TGI [11]: 15.6 µM | TGI [12]: 24.6 µM | TGI [13]: 21.6 µM | TGI [14]: 34.6 µM | TGI [15]: > 100 µM | TGI [16]: 42.5 µM | TGI [17]: 35.5 µM | TGI [18]: 30.8 µM | TGI [19]: 3.46 µM | TGI [20]: 23.7 µM | TGI [21]: 33.9 µM | TGI [22]: > 30.5 µM | TGI [23]: 20.9 µM | TGI [24]: 13.2 µM | TGI [25]: 66.8 µM | TGI [26]: 22.3 µM | TGI [27]: 3.96 µM | TGI [28]: > 100 µM | TGI [29]: 3.46 µM | TGI [30]: 15.1 µM | TGI [31]: 5.26 µM | TGI [32]: 5.56 µM | TGI [33]: 34.4 µM | TGI [34]: 7.4 µM | TGI [35]: 32.1 µM | TGI [36]: 46.6 µM | TGI [37]: 28.6 µM | TGI [38]: > 57.6 µM | TGI [39]: 27 µM | TGI [40]: 29.1 µM | TGI [41]: 20.3 µM | TGI [42]: > 59.7 µM | TGI [43]: 5.29 µM | TGI [44]: 60.5 µM | TGI [45]: 5.49 µM | TGI [46]: 22 µM | TGI [47]: 5.33 µM | TGI [48]: > 21.6 µM | TGI [49]: > 100 µM | TGI [50]: 17.1 µM | TGI [51]: 24.5 µM | TGI [52]: 3.49 µM | TGI [53]: 23.9 µM | TGI [54]: 25.4 µM | TGI [55]: 14.2 µM | TGI [56]: 5.39 µM | TGI [57]: > 100 µM | TGI [58]: > 100 µM

O=c1[nH]nc(Cc2ccccc2)n1/N=C\c1ccccc1
TGI [1]: > 100 µM | TGI [3]: > 100 µM | TGI [4]: > 100 µM | TGI [5]: > 100 µM | TGI [6]: > 100 µM | TGI [7]: > 100 µM | TGI [8]: > 100 µM | TGI [9]: > 100 µM | TGI [10]: > 100 µM | TGI [11]: > 100 µM | TGI [12]: > 100 µM | TGI [13]: > 100 µM | TGI [14]: > 100 µM | TGI [15]: > 100 µM | TGI [16]: > 100 µM | TGI [17]: > 100 µM | TGI [18]: > 100 µM | TGI [19]: > 100 µM | TGI [59]: > 100 µM | TGI [20]: > 100 µM | TGI [21]: > 100 µM | TGI [22]: > 100 µM | TGI [23]: > 100 µM | TGI [24]: > 100 µM | TGI [25]: > 100 µM | TGI [26]: > 100 µM | TGI [27]: > 100 µM | TGI [28]: > 100 µM | TGI [29]: > 100 µM | TGI [30]: > 100 µM | TGI [31]: > 100 µM | TGI [32]: > 100 µM | TGI [34]: > 100 µM | TGI [36]: > 100 µM | TGI [37]: > 100 µM | TGI [38]: > 100 µM | TGI [39]: > 100 µM | TGI [40]: > 100 µM | TGI [41]: > 100 µM | TGI [42]: > 100 µM | TGI [43]: > 100 µM | TGI [44]: > 100 µM | TGI [45]: > 100 µM | TGI [46]: > 100 µM | TGI [47]: > 100 µM | TGI [48]: > 100 µM | TGI [49]: > 100 µM | TGI [50]: > 100 µM | TGI [51]: > 100 µM | TGI [52]: > 100 µM | TGI [53]: > 100 µM | TGI [54]: > 100 µM | TGI [55]: > 100 µM | TGI [56]: > 100 µM | TGI [57]: > 100 µM
